Laboratory results reported in patent publication US4988687A, “Cephalosporin derivatives, and antibacterial agents” (priority 1986, dated 1991).
In brackets after ≈: the same amount, converted by molar mass. Where two headings read alike, the source gives them in different places.

What was measured:
[1] = test system: S. aureus 209P NIHJ-JC1; assay: agar plate dilution method, MIC against S. aureus 209P NIHJ-JC1; assay type: cell-based; conditions: Staphylococcus aureus, read-out: Minimum Inhibitory Concentration (MIC)
Method: (§1) The in vitro antibacterial activities of the compounds of the present invention against various microorganisms, were measured by the following agar plate dilution method. One platinum loopfull of each test microorganism incubated overnight in Mueller Hinton broth, was inoculated to Mueller Hinton agar (inoculum size: 10^6 CFU/ml) Such culture media containing various antibiotics in various concentrations were prepared After incubation at 37° C. for 16 hours, the minimum inhibitory concentrations (MIC: μg/ml) were measured. As comparative compounds, cefotaxime, oeftazidime and the compounds disclosed in Example 2 of Japanese Unexamined Patent Publication No. 215690/1985 e.g. sodium 7-[2-(2-aminothiazol-4-yl)-2-ethoxyiminoacetamido]-3-(1-carboxylatemethylpyridinio-4-yl)thiomethyl-3-cephem-4-carboxylate (hereinafter referred to simply as "Reference Example A") were employed.

[2] = test system: S. aureus JS1; assay: agar plate dilution method, MIC against S. aureus JS1; assay type: cell-based; conditions: Staphylococcus aureus, read-out: Minimum Inhibitory Concentration (MIC)
Method: as §1

[3] = test system: S. aureus BB5703; assay: agar plate dilution method, MIC against S. aureus BB5703; assay type: cell-based; conditions: Staphylococcus aureus, BB5703, 16 h, read-out: Minimum Inhibitory Concentration (MIC)
Method: as §1

[4] = test system: S. epidermidis IAM12012; assay: agar plate dilution method, MIC against S. epidermidis IAM12012; assay type: cell-based; conditions: Staphylococcus epidermidis, read-out: Minimum Inhibitory Concentration (MIC)
Method: as §1

[5] = test system: M. luteus ATCC9341; assay: agar plate dilution method, MIC against M. luteus ATCC9341; assay type: cell-based; conditions: Micrococcus luteus, read-out: Minimum Inhibitory Concentration (MIC)
Method: as §1

[6] = test system: C. freundii GN346/16; assay: agar plate dilution method, MIC against C. freundii GN346/16; assay type: cell-based; conditions: Citrobacter freundii, read-out: Minimum Inhibitory Concentration (MIC)
Method: as §1

[7] = test system: E. coli NIHJ JC2; assay: agar plate dilution method, MIC against E. coli NIHJ JC2; assay type: cell-based; conditions: Escherichia coli, read-out: Minimum Inhibitory Concentration (MIC)
Method: as §1

[8] = test system: E. coli CSH2 (RK1); assay: agar plate dilution method, MIC against E. coli CSH2 (RK1); assay type: cell-based; conditions: Escherichia coli, 16 h, read-out: Minimum Inhibitory Concentration (MIC)
Method: as §1

[9] = test system: K. pneumoniae PCI-602; assay: agar plate dilution method, MIC against K. pneumoniae PCI-602; assay type: cell-based; conditions: Klebsiella pneumoniae, PCI602, 16 h, read-out: Minimum Inhibitory Concentration (MIC)
Method: as §1

[10] = test system: E. coli CSH(RE45); assay: agar plate dilution method, MIC against E. coli CSH(RE45); assay type: cell-based; conditions: Escherichia coli, 16 h, read-out: Minimum Inhibitory Concentration (MIC)
Method: as §1

[11] = test system: K. oxytoca GN10650; assay: agar plate dilution method, MIC against K. oxytoca GN10650; assay type: cell-based; conditions: Klebsiella oxytoca, read-out: Minimum Inhibitory Concentration (MIC)
Method: as §1

[12] = test system: K. pneumoniae No. 42; assay: agar plate dilution method, MIC against K. pneumoniae No. 42; assay type: cell-based; conditions: Klebsiella pneumoniae, read-out: Minimum Inhibitory Concentration (MIC)
Method: as §1

[13] = test system: P. vulgaris HX-19; assay: agar plate dilution method, MIC against P. vulgaris HX-19; assay type: cell-based; conditions: Proteus vulgaris, HX19, 16 h, read-out: Minimum Inhibitory Concentration (MIC)
Method: as §1

[14] = test system: P. vulgaris No. 33; assay: agar plate dilution method, MIC against P. vulgaris No. 33; assay type: cell-based; conditions: Proteus vulgaris, read-out: Minimum Inhibitory Concentration (MIC)
Method: as §1

[15] = test system: S. marcescens IAM 1184; assay: agar plate dilution method, MIC against S. marcescens IAM 1184; assay type: cell-based; conditions: Serratia marcescens, read-out: Minimum Inhibitory Concentration (MIC)
Method: as §1

[16] = test system: C. freundii GN346; assay: agar plate dilution method, MIC against C. freundii GN346; assay type: cell-based; conditions: Citrobacter freundii, read-out: Minimum Inhibitory Concentration (MIC)
Method: as §1

[17] = test system: E. cloacae 963; assay: agar plate dilution method, MIC against E. cloacae 963; assay type: cell-based; conditions: read-out: Minimum Inhibitory Concentration (MIC)
Method: as §1

[18] = test system: E. cloacae Nek 39; assay: agar plate dilution method, MIC against E. cloacae Nek 39; assay type: cell-based; conditions: Enterobacter cloacae, read-out: Minimum Inhibitory Concentration (MIC)
Method: as §1

[19] = test system: E. coli GN5482; assay: agar plate dilution method, MIC against E. coli GN5482; assay type: cell-based; conditions: Escherichia coli, read-out: Minimum Inhibitory Concentration (MIC)
Method: as §1

[20] = test system: M. morganii GN5407; assay: agar plate dilution method, MIC against M. morganii GN5407; assay type: cell-based; conditions: Morganella morganii, read-out: Minimum Inhibitory Concentration (MIC)
Method: as §1

[21] = test system: S. marcescens No. 16-2; assay: agar plate dilution method, MIC against S. marcescens No. 16-2; assay type: cell-based; conditions: Serratia marcescens, NO.162, 16 h, read-out: Minimum Inhibitory Concentration (MIC)
Method: as §1

[22] = test system: Ps. aeruginosa IFO3445; assay: agar plate dilution method, MIC against Ps. aeruginosa IFO3445; assay type: cell-based; conditions: Pseudomonas aeruginosa, read-out: Minimum Inhibitory Concentration (MIC)
Method: as §1

[23] = test system: Ps. aeruginosa AK 109; assay: agar plate dilution method, MIC against Ps. aeruginosa AK 109; assay type: cell-based; conditions: Pseudomonas aeruginosa, AK109, 16 h, read-out: Minimum Inhibitory Concentration (MIC)
Method: as §1

[24] = test system: Ps. aeruginosa AKR17; assay: agar plate dilution method, MIC against Ps. aeruginosa AKR17; assay type: cell-based; conditions: Pseudomonas aeruginosa; Ps. aeruginosa AKR17; 10^6 CFU/ml, 37° C., 16 hours; read-out: Minimum Inhibitory Concentration (MIC)
Method: as §1

[25] = test system: Ps. cepacia 23; assay: agar plate dilution method, MIC against Ps. cepacia 23; assay type: cell-based, Pseudomonas cepacia; conditions: read-out: Minimum Inhibitory Concentration (MIC)
Method: as §1

[26] = test system: Ps. maltophilia GN 12873; assay: agar plate dilution method, MIC against Ps. maltophilia GN 12873; assay type: cell-based, Pseudomonas maltophilia; conditions: Stenotrophomonas maltophilia, read-out: Minimum Inhibitory Concentration (MIC)
Method: as §1

[27] = test system: A. calcoaceticus No. 4; assay: agar plate dilution method, MIC against A. calcoaceticus No. 4; assay type: cell-based; conditions: Acinetobacter calcoaceticus, read-out: Minimum Inhibitory Concentration (MIC)
Method: as §1

## CC(C)(O/N=C(\C(=O)N[C@@H]1C(=O)N2C(C(=O)[O-])=C(C[n+]3ccccc3)CS[C@H]12)c1csc(N)n1)C(=O)O [Ceftazidime, ceftazidime, reference compound]
[1]; 16 h
  MIC: 6.25 µg/mL (≈ 11.4 µM)
[2]; JS1, 16 h
  MIC: 25 µg/mL (≈ 45.7 µM)
[3]
  MIC: 12.5 µg/mL (≈ 22.9 µM)
[4]; IAM12012, 16 h
  MIC: 3.12 µg/mL (≈ 5.71 µM)
[5]; ATCC9341, 16 h
  MIC: 0.78 µg/mL (≈ 1.43 µM)
[6]; GN346, 16 h
  MIC: 0.2 µg/mL (≈ 0.366 µM)
[7]; NIHJJC2, 16 h
  MIC: 0.2 µg/mL (≈ 0.366 µM)
[8]
  MIC: 0.1 µg/mL (≈ 0.183 µM)
[9]
  MIC: < 0.006 µg/mL
[10]
  MIC: 0.1 µg/mL (≈ 0.183 µM)
[11]; GN10650, 16 h
  MIC: 0.2 µg/mL (≈ 0.366 µM)
[12]; NO.42, 16 h
  MIC: 0.39 µg/mL (≈ 0.714 µM)
[13]
  MIC: 0.025 µg/mL (≈ 0.0457 µM)
[14]; NO.33, 16 h
  MIC: 0.05 µg/mL (≈ 0.0915 µM)
[15]; IAM1184, 16 h
  MIC: 0.025 µg/mL (≈ 0.0457 µM)
[16]; GN346, 16 h
  MIC: 25 µg/mL (≈ 45.7 µM)
[17]; Enterobacter cloacae, 963, 16 h
  MIC: 0.2 µg/mL (≈ 0.366 µM)
[18]; NEK39, 16 h
  MIC: 3.12 µg/mL (≈ 5.71 µM)
[19]; GN5482, 16 h
  MIC: 1.56 µg/mL (≈ 2.85 µM)
[20]; GN5407, 16 h
  MIC: 0.1 µg/mL (≈ 0.183 µM)
[21]
  MIC: 1.56 µg/mL (≈ 2.85 µM)
[22]; Ps. aeruginosa IFO3445, 10^6 CFU/ml, 37° C., 16 hours
  MIC: 0.39 µg/mL (≈ 0.714 µM)
[23]
  MIC: 1.56 µg/mL (≈ 2.85 µM)
[24]
  MIC: > 100 µg/mL
[25]; Burkholderia cepacia, Ps. cepacia 23, 10^6 CFU/ml, 37° C., 16 hours
  MIC: 0.78 µg/mL (≈ 1.43 µM)
[26]; GN12873, 16 h
  MIC: 100 µg/mL (≈ 183 µM)
[27]; NO.4, 16 h
  MIC: 6.25 µg/mL (≈ 11.4 µM)

## CCON=C(C(=O)NC1C(=O)N2C(C(=O)[O-])=C(CSc3cc[n+](CC(=O)O)cc3)CSC12)c1csc(N)n1 (stereo not drawn) [Reference Example A, sodium 7-[2-(2-aminothiazol-4-yl)-2-ethoxyiminoacetamido]-3-(1-carboxylatemethylpyridinio-4-yl)thiomethyl-3-cephem-4-carboxylate, reference compound]
[1]; S. aureus 209P NIHJ-JC1, 10^6 CFU/ml, Mueller Hinton agar, 37° C., 16 hours
  MIC: 0.39 µg/mL
[2]; S. aureus JS1 (methicilline resistant; lactamase-producing strain), 10^6 CFU/ml, 37° C., 16 hours
  MIC: 100 µg/mL
[3]
  MIC: 3.12 µg/mL
[4]; S. epidermidis IAM12012, 10^6 CFU/ml, 37° C., 16 hours
  MIC: 0.05 µg/mL
[5]; M. luteus ATCC9341, 10^6 CFU/ml, 37° C., 16 hours
  MIC: 0.1 µg/mL
[6]; C. freundii GN346/16, 10^6 CFU/ml, 37° C., 16 hours
  MIC: 0.1 µg/mL
[7]; NIHJJC2, E. coli NIHJ JC2, 10^6 CFU/ml, 37° C., 16 hours
  MIC: 0.05 µg/mL
[8]
  MIC: 0.025 µg/mL
[9]
  MIC: < 0.006 µg/mL
[10]
  MIC: 0.05 µg/mL
[11]; K. oxytoca GN10650 (lactamase-producing strain), 10^6 CFU/ml, 37° C., 16 hours
  MIC: 3.12 µg/mL
[12]; K. pneumoniae No. 42 (lactamase-producing strain), 10^6 CFU/ml, 37° C., 16 hours
  MIC: 0.05 µg/mL
[13]
  MIC: < 0.006 µg/mL
[14]; P. vulgaris No. 33 (lactamase-producing strain), 10^6 CFU/ml, 37° C., 16 hours
  MIC: 0.05 µg/mL
[15]; IAM1184, S. marcescens IAM 1184, 10^6 CFU/ml, 37° C., 16 hours
  MIC: 0.05 µg/mL
[16]; C. freundii GN346 (lactamase-producing strain), 10^6 CFU/ml, 37° C., 16 hours
  MIC: 25 µg/mL
[17]; Enterobacter cloacae, E. cloacae 963, 10^6 CFU/ml, 37° C., 16 hours
  MIC: 0.1 µg/mL
[18]; NEK39, E. cloacae Nek 39 (lactamase-producing strain), 10^6 CFU/ml, 37° C., 16 hours
  MIC: 1.56 µg/mL
[19]; E. coli GN5482 (lactamase-producing strain), 10^6 CFU/ml, 37° C., 16 hours
  MIC: 0.2 µg/mL
[20]; M. morganii GN5407 (lactamase-producing strain), 10^6 CFU/ml, 37° C., 16 hours
  MIC: 0.05 µg/mL
[21]
  MIC: 6.25 µg/mL
[22]; IFO3445, 16 h
  MIC: 6.25 µg/mL
[23]
  MIC: 12.5 µg/mL
[24]
  MIC: > 100 µg/mL
[25]; Burkholderia cepacia, 23, 16 h
  MIC: 6.25 µg/mL
[26]; GN12873, Ps. maltophilia GN 12873 (lactamase-producing strain), 10^6 CFU/ml, 37° C., 16 hours
  MIC: > 100 µg/mL
[27]; A. calcoaceticus No. 4, 10^6 CFU/ml, 37° C., 16 hours
  MIC: 100 µg/mL
